12 compounds from ChEMBL document CHEMBL1146175, “Natural inhibitors targeting osteoclast-mediated bone resorption” (Bioorg Med Chem Lett, 2006) can be followed below.

As a reminder, the IC50 is the point on the concentration scale where inhibition reaches its midpoint. A high value points to a need for much substance.

The target in the first assay is T1, Cathepsin K (Homo sapiens, UniProt P43235).
T1 sequence (P43235 whole entry): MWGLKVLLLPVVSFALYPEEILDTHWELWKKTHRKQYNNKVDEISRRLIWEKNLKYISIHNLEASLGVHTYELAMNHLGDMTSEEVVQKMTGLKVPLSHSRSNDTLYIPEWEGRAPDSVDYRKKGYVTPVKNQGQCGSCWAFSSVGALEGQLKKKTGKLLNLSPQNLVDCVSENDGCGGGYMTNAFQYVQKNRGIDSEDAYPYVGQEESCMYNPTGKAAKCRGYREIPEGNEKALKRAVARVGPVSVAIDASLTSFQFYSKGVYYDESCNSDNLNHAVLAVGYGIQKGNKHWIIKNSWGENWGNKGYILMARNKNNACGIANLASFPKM
Description: Inhibition of human Cathepsin K.
Turning to `COc1ccc(-c2cc(=O)c3c(O)cc(OC)c(-c4cc(-c5cc(=O)c6c(O)cc(O)cc6o5)ccc4O)c3o2)cc1` [7'',4'''-dimethylamentoflavone], the midpoint of inhibition, the IC50, lay at 1570 nM.

Consider `CC(=O)N[C@@H](CC(C)C)C(=O)N[C@@H](CC(C)C)C(=O)N[C@H](C=O)CCCNC(=N)N` [LEUPEPTIN], for which the IC50 was 42.2 nM.

`O=c1cc(-c2ccc(O)c(-c3c(O)cc(O)c4c(=O)cc(-c5ccc(O)cc5)oc34)c2)oc2cc(O)cc(O)c12` [AMENTOFLAVONE] showed a concentration for half-maximal inhibition (IC50) of 1880 nM.

`O=C1C[C@@H](c2ccc(O)c(-c3c(O)cc(O)c4c(=O)cc(-c5ccc(O)cc5)oc34)c2)Oc2cc(O)cc(O)c21`: half-maximal inhibition (IC50) required 1420 nM.

The compound `O=c1cc(-c2ccc(Oc3c(O)cc4oc(-c5ccc(O)cc5)cc(=O)c4c3O)cc2)oc2cc(O)cc(O)c12` [HINOKIFLAVONE] gave an IC50 of 1540 nM.

As to `COc1cc2c([nH]c3c4c(c(C)cc32)OC(C)(C)C=C4)c(-c2c(O)c(OC)cc3c2[nH]c2c4c(c(C)cc23)OC(C)(C)C=C4)c1O`, the 50% inhibitory concentration (IC50) is 1910 nM.

Consider `COc1ccc(-c2cc(=O)c3c(O)cc(O)c(-c4cc(-c5cc(=O)c6c(O)cc(O)cc6o5)ccc4O)c3o2)cc1` [PODOCARPUSFLAVONE A], for which the IC50 was 2520 nM.

`COc1ccc(-c2cc(=O)c3c(O)cc(O)cc3o2)cc1-c1c(O)cc(O)c2c(=O)cc(-c3ccc(O)cc3)oc12` [BILOBETIN] gave a half-inhibitory concentration (IC50) of 1520 nM.

For a further assay, the target named is Integrin alpha-V/beta-3 (Homo sapiens, UniProt P05106+P06756). Nature of the assay: Inhibition of human alpha-v-beta-3 integrin receptor by ELISA. Type of assay: protein-complex assay. (In general: An ELISA detects its analyte on a solid surface through an enzyme-linked reagent.)
Sequence of Integrin alpha-V/beta-3 (P05106 27-788 limits assumed): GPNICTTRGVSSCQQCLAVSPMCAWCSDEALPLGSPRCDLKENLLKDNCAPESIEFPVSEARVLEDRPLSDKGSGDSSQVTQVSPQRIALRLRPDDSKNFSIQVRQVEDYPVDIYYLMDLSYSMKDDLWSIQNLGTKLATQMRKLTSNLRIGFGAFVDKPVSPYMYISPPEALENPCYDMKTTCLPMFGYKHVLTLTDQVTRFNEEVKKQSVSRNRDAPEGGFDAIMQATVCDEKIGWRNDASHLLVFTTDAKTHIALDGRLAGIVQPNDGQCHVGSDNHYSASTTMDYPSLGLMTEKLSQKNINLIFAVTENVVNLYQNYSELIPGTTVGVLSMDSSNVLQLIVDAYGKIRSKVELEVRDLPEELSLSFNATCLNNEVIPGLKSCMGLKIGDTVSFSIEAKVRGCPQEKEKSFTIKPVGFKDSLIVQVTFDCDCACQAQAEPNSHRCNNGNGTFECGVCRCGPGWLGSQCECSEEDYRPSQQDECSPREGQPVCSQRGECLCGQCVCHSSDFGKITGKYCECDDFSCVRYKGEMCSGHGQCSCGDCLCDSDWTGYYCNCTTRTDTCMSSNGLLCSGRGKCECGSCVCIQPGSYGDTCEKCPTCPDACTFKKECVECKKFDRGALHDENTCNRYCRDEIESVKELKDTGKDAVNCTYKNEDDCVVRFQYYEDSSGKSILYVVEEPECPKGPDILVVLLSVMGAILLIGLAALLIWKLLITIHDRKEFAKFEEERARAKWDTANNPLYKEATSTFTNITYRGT
Sequence of Integrin alpha-V/beta-3 (P06756 31-889 limits assumed): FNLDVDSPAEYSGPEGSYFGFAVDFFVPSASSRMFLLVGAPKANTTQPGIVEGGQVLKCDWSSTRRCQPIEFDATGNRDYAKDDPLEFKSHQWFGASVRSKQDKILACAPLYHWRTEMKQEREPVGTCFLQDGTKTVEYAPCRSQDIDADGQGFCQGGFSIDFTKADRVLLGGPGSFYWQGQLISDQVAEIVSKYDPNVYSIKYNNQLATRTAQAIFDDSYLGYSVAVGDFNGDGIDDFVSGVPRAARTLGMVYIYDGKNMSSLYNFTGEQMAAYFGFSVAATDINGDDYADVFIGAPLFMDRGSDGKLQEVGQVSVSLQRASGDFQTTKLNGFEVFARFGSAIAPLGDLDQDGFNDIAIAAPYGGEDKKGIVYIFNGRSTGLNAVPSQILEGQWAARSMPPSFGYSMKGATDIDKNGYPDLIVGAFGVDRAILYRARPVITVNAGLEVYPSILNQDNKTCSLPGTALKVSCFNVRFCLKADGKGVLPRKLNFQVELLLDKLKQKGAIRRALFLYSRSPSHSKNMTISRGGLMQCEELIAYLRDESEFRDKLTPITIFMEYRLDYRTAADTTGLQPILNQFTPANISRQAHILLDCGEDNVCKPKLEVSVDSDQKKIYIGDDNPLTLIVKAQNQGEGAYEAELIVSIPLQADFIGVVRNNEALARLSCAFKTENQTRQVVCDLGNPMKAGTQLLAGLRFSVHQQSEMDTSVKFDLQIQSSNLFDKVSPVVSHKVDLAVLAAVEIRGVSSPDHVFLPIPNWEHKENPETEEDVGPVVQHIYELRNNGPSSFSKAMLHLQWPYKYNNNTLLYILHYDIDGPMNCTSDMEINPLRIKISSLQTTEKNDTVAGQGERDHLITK
Sequence of Integrin alpha-V/beta-3 (P06756 891-1048 limits assumed): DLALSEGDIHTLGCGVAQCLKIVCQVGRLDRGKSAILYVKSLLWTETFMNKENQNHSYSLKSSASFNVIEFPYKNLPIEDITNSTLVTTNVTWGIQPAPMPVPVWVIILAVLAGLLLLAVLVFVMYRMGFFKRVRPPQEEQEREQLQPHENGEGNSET
The compound `O=C(O)/C=C/c1ccccc1O[C@@H]1O[C@H](CO)[C@@H](O)[C@H](O)[C@H]1O` [MELILOTOSIDE] had a half-maximal inhibitory concentration (IC50) of 18300 nM.

In another assay the target is Matrix metalloproteinase-9 (Homo sapiens, UniProt P14780). Description: Inhibition of human MMP9 by quenched fluorescense assay.
Sequence of Matrix metalloproteinase-9 (P14780 whole entry): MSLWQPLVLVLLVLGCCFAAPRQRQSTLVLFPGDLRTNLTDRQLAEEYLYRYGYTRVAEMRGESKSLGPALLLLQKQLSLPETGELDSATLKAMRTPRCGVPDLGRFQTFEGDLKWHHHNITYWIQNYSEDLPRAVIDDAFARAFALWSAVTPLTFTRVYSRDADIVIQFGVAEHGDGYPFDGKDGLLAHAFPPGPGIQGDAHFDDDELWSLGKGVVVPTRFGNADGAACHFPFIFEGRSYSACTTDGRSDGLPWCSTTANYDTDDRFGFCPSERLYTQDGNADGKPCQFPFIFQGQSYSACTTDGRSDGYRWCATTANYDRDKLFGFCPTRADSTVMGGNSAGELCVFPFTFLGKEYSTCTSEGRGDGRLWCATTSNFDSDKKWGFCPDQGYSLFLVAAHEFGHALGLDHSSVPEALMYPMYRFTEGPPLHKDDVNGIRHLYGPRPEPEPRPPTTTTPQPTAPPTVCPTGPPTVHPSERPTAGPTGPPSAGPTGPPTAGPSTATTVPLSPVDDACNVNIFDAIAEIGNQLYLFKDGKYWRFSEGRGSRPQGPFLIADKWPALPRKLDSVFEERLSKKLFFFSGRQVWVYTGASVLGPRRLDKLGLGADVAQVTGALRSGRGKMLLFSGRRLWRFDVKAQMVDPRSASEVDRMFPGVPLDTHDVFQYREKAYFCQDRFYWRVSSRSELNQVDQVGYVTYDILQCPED
In turn, `O=c1c2ccccc2nc2n1CCc1c-2[nH]c2ccccc12` [RUTAECARPINE] showed an IC50 of 27700 nM.

In turn, `C[C@@H]1C[C@@H](O)[C@@]2(O)[C@@]13C[C@@H](OC(=O)[C@@H]3O)[C@](C)(O)[C@@]21COC1=O` [ANIASATIN] showed a concentration for half-maximal inhibition (IC50) of 17700 nM.

In turn, `O=C(NO)[C@@H](Cc1ccccc1)NS(=O)(=O)c1ccc(-c2ccccc2)cc1` gave a concentration for half-maximal inhibition (IC50) of 7.06 nM.
